Source: ChEMBL document CHEMBL3822390, “Synthesis, characterization and anti-cancer activity of a peptide nucleolipid bioconjugate” (2016)

Tests used:
Assay type in all cases: functional
SK-MEL-5 = assay: Cytotoxicity against human SK-MEL-5 cells assessed as cell growth at 10 uM after 48 hrs by SRB assay; conditions: SK-MEL-5, 48 h, read-out: Activity
MDA-MB-435 = assay: Cytotoxicity against human MDA-MB-435 cells assessed as cell growth at 10 uM after 48 hrs by SRB assay; conditions: MDA-MB-435, 48 h, read-out: Activity
KM12 [1] = assay: Cytotoxicity against human KM12 cells assessed as cell growth at 10 uM after 48 hrs by SRB assay; conditions: KM12, 48 h, read-out: Activity
[2] = Cytotoxicity against human SF268 cells assessed as cell growth at 10 uM after 48 hrs by SRB assay; conditions: SF-268, 48 h, read-out: Activity
[3] = Cytotoxicity against human UACC257 cells assessed as cell growth at 10 uM after 48 hrs by SRB assay; conditions: UACC-257, 48 h, read-out: Activity
[4] = Cytotoxicity against human BT549 cells assessed as cell growth at 10 uM after 48 hrs by SRB assay; conditions: BT-549, 48 h, read-out: Activity
[5] = Cytotoxicity against human HOP92 cells assessed as cell growth at 10 uM after 48 hrs by SRB assay; conditions: HOP-92, 48 h, read-out: Activity
[6] = Cytotoxicity against human SF539 cells assessed as cell growth at 10 uM after 48 hrs by SRB assay; conditions: SF-539, 48 h, read-out: Activity
[7] = Cytotoxicity against human Hs 578T cells assessed as cell growth at 10 uM after 48 hrs by SRB assay; conditions: read-out: Activity
[8] = Cytotoxicity against human TK10 cells assessed as cell growth at 10 uM after 48 hrs by SRB assay; conditions: TK-10, 48 h, read-out: Activity
SK-MEL-2 [9] = assay: Cytotoxicity against human SK-MEL-2 cells assessed as cell growth at 10 uM after 48 hrs by SRB assay; conditions: SK-MEL-2, 48 h, read-out: Activity
[10] = Cytotoxicity against human HOP62 cells assessed as cell growth at 10 uM after 48 hrs by SRB assay; conditions: HOP-62, 48 h, read-out: Activity
[11] = Cytotoxicity against human SNB19 cells assessed as cell growth at 10 uM after 48 hrs by SRB assay; conditions: SNB-19, 48 h, read-out: Activity
NCI-H522 [12] = assay: Cytotoxicity against human NCI-H522 cells assessed as cell mortality at 10 uM after 48 hrs by SRB assay; conditions: NCI-H522, 48 h
SR = assay: Cytotoxicity against human SR cells assessed as cell growth at 10 uM after 48 hrs by SRB assay; conditions: read-out: Activity
[13] = Cytotoxicity against human UACC62 cells assessed as cell growth at 7.25 uM after 48 hrs by SRB assay; conditions: UACC-62, 48 h, read-out: Activity
A549 = assay: Cytotoxicity against human A549 cells assessed as cell mortality at 7.25 uM after 48 hrs by SRB assay; conditions: A549, 48 h
[14] = Cytotoxicity against human MOLT4 cells assessed as cell growth at 7.25 uM after 48 hrs by SRB assay; conditions: MOLT-4, 48 h, read-out: Activity
KM12 [15] = assay: Cytotoxicity against human KM12 cells assessed as cell growth at 7.25 uM after 48 hrs by SRB assay; conditions: KM12, 48 h, read-out: Activity
[16] = Cytotoxicity against human OVCAR4 cells assessed as cell growth at 7.25 uM after 48 hrs by SRB assay; conditions: OVCAR-4, 48 h, read-out: Activity
MDA-MB-231 = assay: Cytotoxicity against human MDA-MB-231 cells assessed as cell growth at 7.25 uM after 48 hrs by SRB assay; conditions: MDA-MB-231, 48 h, read-out: Activity
[17] = Cytotoxicity against human HL-60(TB) cells assessed as cell growth at 7.25 uM after 48 hrs by SRB assay; conditions: HL-60, 48 h, read-out: Activity
U-251 [18] = assay: Cytotoxicity against human U251 cells assessed as cell growth at 7.25 uM after 48 hrs by SRB assay; conditions: U-251, 48 h, read-out: Activity
[19] = Cytotoxicity against human RPMI8226 cells assessed as cell growth at 7.25 uM after 48 hrs by SRB assay; conditions: RPMI-8226, 48 h, read-out: Activity
T47D = assay: Cytotoxicity against human T47D cells assessed as cell growth at 7.25 uM after 48 hrs by SRB assay; conditions: read-out: Activity
SK-MEL-2 [20] = assay: Cytotoxicity against human SK-MEL-2 cells assessed as cell growth at 7.25 uM after 48 hrs by SRB assay; conditions: SK-MEL-2, 48 h, read-out: Activity
NCI-H522 [21] = assay: Cytotoxicity against human NCI-H522 cells assessed as cell growth at 7.25 uM after 48 hrs by SRB assay; conditions: NCI-H522, 48 h, read-out: Activity
SN12C = assay: Cytotoxicity against human SN12C cells assessed as cell growth at 7.25 uM after 48 hrs by SRB assay; conditions: read-out: Activity
[22] = Cytotoxicity against human LOXIMVI cells assessed as cell growth at 7.25 uM after 48 hrs by SRB assay; conditions: LOX IMVI, read-out: Activity
NCI-H522 [23] = assay: Cytotoxicity against human NCI-H522 cells assessed as cell mortality at 7.25 uM after 48 hrs by SRB assay; conditions: NCI-H522, 48 h
[24] = Cytotoxicity against human PC3 cells assessed as cell growth at 7.25 uM after 48 hrs by SRB assay; conditions: PC-3, 48 h, read-out: Activity
[25] = Cytotoxicity against human IGROV1 cells assessed as cell growth at 7.25 uM after 48 hrs by SRB assay; conditions: IGROV-1, 48 h, read-out: Activity
[26] = Cytotoxicity against human SF295 cells assessed as cell growth at 2.13 uM after 48 hrs by SRB assay; conditions: SF-295, 48 h, read-out: Activity
[27] = Cytotoxicity against human RPMI8226 cells assessed as cell growth at 2.13 uM after 48 hrs by SRB assay; conditions: RPMI-8226, 48 h, read-out: Activity
NCI-H322M = assay: Cytotoxicity against human NCI-H322M cells assessed as cell growth at 2.13 uM after 48 hrs by SRB assay; conditions: read-out: Activity
[28] = Cytotoxicity against human SNB75 cells assessed as cell growth at 2.13 uM after 48 hrs by SRB assay; conditions: SNB-75, 48 h, read-out: Activity
[29] = Cytotoxicity against human BT549 cells assessed as cell growth at 2.13 uM after 48 hrs by SRB assay; conditions: BT-549, 48 h, read-out: Activity
U-251 [30] = assay: Cytotoxicity against human U251 cells assessed as cell growth at 2.13 uM after 48 hrs by SRB assay; conditions: U-251, 48 h, read-out: Activity
[31] = Cytotoxicity against human COLO205 cells assessed as cell growth at 2.13 uM after 48 hrs by SRB assay; conditions: COLO 205, 48 h, read-out: Activity
[32] = Cytotoxicity against human MOLT4 cells assessed as cell growth at 2.13 uM after 48 hrs by SRB assay; conditions: MOLT-4, 48 h, read-out: Activity
[33] = Cytotoxicity against human UO31 cells assessed as cell growth at 2.13 uM after 48 hrs by SRB assay; conditions: UO-31, 48 h, read-out: Activity

## CC(C)C[C@H](NC(=O)[C@H](CCCCN)NC(=O)[C@H](C)NC(=O)[C@H](CC(C)C)NC(=O)[C@H](CCCCN)NC(=O)[C@H](CCCCN)NC(=O)[C@H](C)NC(=O)[C@H](CC(C)C)NC(=O)[C@H](CCCCN)NC(=O)[C@H](C)NC(=O)[C@H](CC(C)C)NC(=O)[C@H](CCCCN)NC(=O)[C@@H](N)CC(=O)O)C(=O)N[C@@H](C)C(=O)N[C@@H](CCCCN)C(=O)N[C@@H](C)C(=O)N[C@@H](CCCCN)C(N)=O
SK-MEL-5
  growth at 10 µM: 101%
MDA-MB-435
  growth at 10 µM: 108%
KM12 [1]
  growth at 10 µM: 103%
[2]
  growth at 10 µM: 94.7%
[3]
  growth at 10 µM: 71.8%
[4]
  growth at 10 µM: 105%
[5]
  growth at 10 µM: 86.1%
[6]
  growth at 10 µM: 98%
[7]
  growth at 10 µM: 107%
[8]
  growth at 10 µM: 94.4%
SK-MEL-2 [9]
  growth at 10 µM: 90.7%
[10]
  growth at 10 µM: 104%
[11]
  growth at 10 µM: 106%
NCI-H522 [12]
  mortality at 10 µM: 14%
SR
  growth at 10 µM: 85%

## CCCCCCCCCCCCCCCC(=O)NCCCC[C@H](NC(=O)[C@H](C)NC(=O)[C@H](CCCCN)NC(=O)[C@H](C)NC(=O)[C@H](CC(C)C)NC(=O)[C@H](CCCCN)NC(=O)[C@H](C)NC(=O)[C@H](CC(C)C)NC(=O)[C@H](CCCCN)NC(=O)[C@H](CCCCN)NC(=O)[C@H](C)NC(=O)[C@H](CC(C)C)NC(=O)[C@H](CCCCN)NC(=O)[C@H](C)NC(=O)[C@H](CC(C)C)NC(=O)[C@H](CCCCN)NC(=O)[C@@H](N)CC(=O)O)C(N)=O
[13]
  growth at 7.25 µM: 102%
A549
  mortality at 7.25 µM: 32%
[14]
  growth at 7.25 µM: 97.6%
KM12 [15]
  growth at 7.25 µM: 110%
[16]
  growth at 7.25 µM: 116%
MDA-MB-231
  growth at 7.25 µM: 104%
[17]
  growth at 7.25 µM: 93.1%
U-251 [18]
  growth at 7.25 µM: 91.3%
[19]
  growth at 7.25 µM: 103%
T47D
  growth at 7.25 µM: 99%
SK-MEL-2 [20]
  growth at 7.25 µM: 93.1%
NCI-H522 [21]
  growth at 7.25 µM: 83.5%
SN12C
  growth at 7.25 µM: 104%
[22]
  growth at 7.25 µM: 95.6%
NCI-H522 [23]
  mortality at 7.25 µM: 16%
[24]
  growth at 7.25 µM: 91.2%
[25]
  growth at 7.25 µM: 108%

## CCCCCCCCCCCCCCCCNCCO[C@H]1C[C@H](n2cc(C)c(=O)[nH]c2=O)O[C@@H]1C(=O)NCCCC[C@H](NC(=O)[C@H](C)NC(=O)[C@H](CCCCN)NC(=O)[C@H](C)NC(=O)[C@H](CC(C)C)NC(=O)[C@H](CCCCN)NC(=O)[C@H](C)NC(=O)[C@H](CC(C)C)NC(=O)[C@H](CCCCN)NC(=O)[C@H](CCCCN)NC(=O)[C@H](C)NC(=O)[C@H](CC(C)C)NC(=O)[C@H](CCCCN)NC(=O)[C@H](C)NC(=O)[C@H](CC(C)C)NC(=O)[C@H](CCCCN)NC(=O)[C@@H](N)CC(=O)O)C(N)=O
[26]
  growth at 2.13 µM: 97.7%
[27]
  growth at 2.13 µM: 104%
NCI-H322M
  growth at 2.13 µM: 110%
[28]
  growth at 2.13 µM: 96.1%
[29]
  growth at 2.13 µM: 113%
U-251 [30]
  growth at 2.13 µM: 92.7%
[31]
  growth at 2.13 µM: 109%
[32]
  growth at 2.13 µM: 97.8%
[33]
  growth at 2.13 µM: 81.2%
